# Measured values published in PubChem BioAssay AID493092 (Sanford-Burnham Center for Chemical Genomics, 2011).
# Calls of active or inactive are those of the source.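 How the source made its calls: active means averaged IC50 for reducing per-cell lipid droplet stain intensity under a set limit; inactive means the rest.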
# System: AML12 mouse hepatocytes, BODIPY lipid droplet imaging
# Assay: inhibitors of hepatocyte lipid droplet formation, SAR follow-up, imaging, AML12 mouse hepatocytes, BODIPY staining (AID 493092)
# Conditions: cells fed 100 µM oleate overnight
row,SMILES,IC50
1,O=C(NCc1ccc2c(c1)OCO2)c1cc(-c2ccccc2)c(N2CCOCC2)s1,412 nM
2,COc1ccc(CN(C)C(=O)CNC(=O)Cc2cccc3ccccc23)c(OC)c1,2990 nM
3,Cc1nn2c(N3CCOCC3)cc(C(C)(C)C)nc2c1-c1ccc(Cl)cc1,> 32000 nM (inactive)
4,CCOc1ccc(CCNC(=O)CSc2cc(=O)n(CC)c3ccccc23)cc1OCC,1260 nM
5,CCOc1ccc(CN(C)C(=O)CNC(=O)Cc2cccc3ccccc23)cc1,168 nM
6,CCOc1ccc(CCNC(=O)CCc2nnc3ccc(N4CCCC4)nn23)cc1OCC,922 nM
7,CCOc1ccc(CCNC(=O)COC(=O)c2cc(OC)cc(OC)c2)cc1OCC,736 nM
8,CC(Sc1nnc(Nc2ccccc2)s1)C(=O)Nc1nc(-c2ccccc2)cs1 (configuration not stated),3680 nM
9,Cc1cc(N2CCOCC2)n2nc(C)c(-c3ccccc3Cl)c2n1,410 nM
10,CCOc1ccc(CCNC(=O)CSc2cc(=O)n(C)c3ccccc23)cc1OCC,496 nM
11,CCOc1ccc(CN(C)C(=O)CNC(=O)c2ccc3ccccc3c2)cc1OC,402 nM
12,Cc1sc(NC(=O)Cc2ccc3c(c2)OCO3)nc1-c1ccc2c(c1)CCN2C(=O)c1ccccc1F,> 32000 nM (inactive)
13,CCOc1ccc(CCNC(=O)Cn2ncn3nc(-c4ccc(OC)cc4)cc3c2=O)cc1OCC,121 nM
14,COc1cccc(CN(C)C(=O)CNC(=O)Cc2cccc3ccccc23)c1OC,> 32000 nM (inactive)
15,Cc1cc(N2CCOCC2)n2ncc(-c3ccc(F)cc3)c2n1,2120 nM
16,CCOc1ccc(CCNC(=O)CCC(=O)N2CCSc3ccccc32)cc1OCC,81.7 nM
17,COc1ccc(CCNC(=O)Nc2ccc(C(C)=O)cc2)cc1OC,> 32000 nM (inactive)
18,CC(=O)Nc1ccc(-c2csc(NC(=O)Cc3cccc(F)c3)n2)cc1,2710 nM
19,CCOc1ccc(CCNC(=O)c2cc(-c3ccccc3)c(N3CCOCC3)s2)cc1OCC,< 62.5 nM
20,Cc1cc(N2CCOCC2)n2nc(C)c(-c3ccccc3)c2n1,217 nM
21,COc1ccccc1NC(=O)C1CCN(C(=O)NCc2ccccc2)CC1,3230 nM
22,CC(OC(=O)c1cccc([N+](=O)[O-])c1)C(=O)Nc1nc(-c2ccccc2)cs1 (configuration not stated),> 32000 nM (inactive)
23,CCCc1ccc(-c2csc(NC(=O)Cc3cccs3)n2)cc1,510 nM
24,CCOc1ccc(CCNC(=O)c2nnc(Cc3ccc(F)cc3)o2)cc1OCC,543 nM
25,CCOc1ccc(CCNC(=O)Nc2ccccc2C)cc1OCC,826 nM
26,COc1ccc(C(=O)OC(C)C(=O)NC(C)CCc2ccccc2)cc1[N+](=O)[O-] (configuration not stated),261 nM

row,SMILES,IC50
1,CCOc1ccc(CCNC(=O)Cn2nc(C)c3c(C)n(-c4ccccc4)nc3c2=O)cc1OCC,336 nM
2,CCOc1ccc(CCNC(=O)Cn2cccc2C(=O)c2ccccc2C)cc1OCC,330 nM
3,O=C(CSCC(=O)N1CCCc2ccccc21)Nc1nc(-c2ccccc2)cs1,11800 nM (inactive)
4,CCc1ccccc1NC(=O)CCC(=O)Nc1cc(OC)c(NC(=O)c2cccs2)cc1OC,538 nM
5,CCOc1ccc(CCNC(=O)CSc2cc(=O)n(C)c3cc(Cl)ccc23)cc1OCC,> 32000 nM (inactive)
6,COc1ccc(CNC(=O)CN2C(=O)NC(C)(c3cccc4ccccc34)C2=O)cc1OC (configuration not stated),1170 nM
7,CCOc1ccc(CCNC(=O)Nc2cccc(OC)c2)cc1OCC,134 nM
8,CCOc1ccccc1C(=O)NCC(=O)NCCCc1ccccc1,> 32000 nM (inactive)
9,CCOc1ccc(C(=O)NCC(=O)NC(C)CCc2ccccc2)cc1OCC (configuration not stated),688 nM
10,Cc1ccc(-n2nc3c(=O)n(CC(=O)NC(C)CCc4ccccc4)nc(C)c3c2C)cc1 (configuration not stated),413 nM
11,Cc1cc(N2CCOCC2)n2nc(C)c(-c3ccc(Cl)cc3)c2n1,158 nM
12,COc1ccc(-c2csc(NC(=O)c3ccc(OCC(=O)N4CCOCC4)c(OC)c3)n2)cc1OC,1020 nM
13,COc1ccc(Br)cc1CN(C)C(=O)CNC(=O)Cc1cccc2ccccc12,2080 nM
14,CCOc1ccc(C(=O)OCC(=O)Nc2nc(OC)cc(OC)n2)cc1OCC,591 nM
15,COc1cc(NC(=O)c2cccs2)c(OC)cc1NC(=O)CCC(=O)Nc1cc(C)cc(C)c1,87 nM
16,CC(OC(=O)c1ccc(S(=O)(=O)C(F)F)cc1)C(=O)Nc1nc(-c2ccccc2)cs1 (configuration not stated),> 32000 nM (inactive)
17,Cc1cc(C)n(-c2ccc(C(=O)OC(C)C(=O)Nc3nc(-c4ccccc4)cs3)cc2)n1 (configuration not stated),> 32000 nM (inactive)
18,O=C(Cc1cccc2ccccc12)NCC(=O)N1CCc2ccccc2C1,> 32000 nM (inactive)
19,CCOc1ccccc1NC(=O)CCC(=O)Nc1ccccc1OCC,1540 nM
20,CC(OC(=O)c1ccc(O)cc1)C(=O)Nc1nc(-c2ccccc2)cs1 (configuration not stated),> 32000 nM (inactive)
21,Cc1ccc(-c2cnn3c(N4CCOCC4)cc(C)nc23)cc1,10600 nM (inactive)
22,COc1cc(NC(=O)c2cccs2)c(OC)cc1NC(=O)CCC(=O)Nc1cccc2ccccc12,260 nM
23,CCOc1ccc(CCNC(=O)CCC(=O)N2CCOc3ccc(C)cc32)cc1OCC,298 nM
24,Cc1ccc(-c2c(C)nn3c(N4CCOCC4)cc(C)nc23)cc1,246 nM
25,CCOc1ccccc1Nc1nnc(SC(C)C(=O)Nc2nc(-c3ccccc3)cs2)s1 (configuration not stated),1160 nM
26,CCOc1ccc(CCNC(=O)CN2CCN(Cc3ccccc3C)C2=O)cc1OCC,555 nM
